According to US12023390B2, “Isomerically pure 18F-labelled tetrahydrofolates” (MERCK PATENT GMBH, priority 2017, dated 2024):
Several values for one entry are separate records, joined by “and”; a condition that tells them apart may be missing. Equal values may be shown once. Read-outs that look alike come from different tables or passages of the source. Blank lines part the entries; values can stand above or below the compound they belong to.

Assays:
KB tumor-bearing mice = test: Biodistribution studies in KB tumor-bearing mice
[1] = Metabolite studies / in vivo stability (radio-UPLC of blood plasma, liver, urine); design: species or system mice
Protocol: (§1) In order to investigate FR-specific cell uptake and internalization, cell uptake and internalization of 6R-[^18F]1 and 6S-[^18F]1 were carried out using FR-positive KB cells. Cell uptake increased constantly over time for both diastereoisomers resulting in an uptake of about 60% (calculated per 0.3 mg of protein) of total added radioactivity after 3 h of incubation at 37° C. (FIG. 22).
The folate radiotracer 6S/6R-[^18F]5 (1:1 ratio, 53.7-52.3 MBq; 0.62-1.15 nmol) were intravenously injected into mice in order to determine the in vivo stability of the tracers. […] Ice-cold methanol containing 10 mg/mL 2-mercaptoethanol and 0.025% (v/v) ammonium hydroxide was added to the blood plasma, homogenized liver and urine in order to precipitate the proteins.^6 After centrifugation, the supernatants of the blood plasma, liver and urine samples were analyzed by radio-UPLC (FIG. 4).

[2] = Distribution coefficient (log D7.4), shake flask method; assay type: physicochemical; conditions: n-octanol / phosphate buffer pH 7.4, room temperature
RT16 (FR-α) = target: T1, RT16 (FR-α) (Homo sapiens, UniProt P15328); test: Cell uptake and internalization in FR-α transfected CHO cells (RT16); assay type: cell-based
T1 construct: expressed in transfected cells; host or cells: CHO cells (RT16)
T1 sequence (P15328 25-234): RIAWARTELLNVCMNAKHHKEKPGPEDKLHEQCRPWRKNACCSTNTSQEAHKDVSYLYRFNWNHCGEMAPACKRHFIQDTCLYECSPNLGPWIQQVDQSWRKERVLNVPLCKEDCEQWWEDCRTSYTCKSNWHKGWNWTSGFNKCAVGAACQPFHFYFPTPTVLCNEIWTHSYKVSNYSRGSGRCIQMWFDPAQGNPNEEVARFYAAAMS
Protocol: (§2) The uptake and internalization of the oxidized (^18F-AzaFol) and reduced ^18F-folates (6S-isomer and 6R-isomer of ^18F-5-Me-Aza-THF) in D4 and RT16 cells which express the FR-α and FR-β, […] was studied. Both cell lines were kindly provided by Larry Matherly Wayne State University, Detroit, U.S.; Golani et al., J Med Chem, 2016, 59, 7856.
The internalized fraction of the radiotracers reached 8-10% after 1 h and increased slightly up to 9-12% after 3 h incubation.

D4 (FR-β) = target: T2, D4 (FR-β) (Homo sapiens, UniProt P14207); test: Cell uptake and internalization in FR-β transfected CHO cells (D4); assay type: cell-based; conditions: for uptake into D4 cells (in words): D4 (FR-β) cells; for internalized fraction / uptake: D4 cells
T2 construct: expressed in transfected cells; host or cells: CHO cells (D4)
T2 sequence (P14207 17-230): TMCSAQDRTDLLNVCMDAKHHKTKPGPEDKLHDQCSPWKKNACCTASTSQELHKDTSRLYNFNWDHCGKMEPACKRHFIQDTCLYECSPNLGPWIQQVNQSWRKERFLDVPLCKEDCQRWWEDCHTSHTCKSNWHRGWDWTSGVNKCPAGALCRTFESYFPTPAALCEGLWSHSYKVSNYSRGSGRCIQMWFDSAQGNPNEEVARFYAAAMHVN
Protocol: as §2
When using D4 cells that express the FR-β, the uptake of ^18F-AzaFol and the 6S-isomer of the reduced radiotracer reached approximately 70% after 1 h incubation and 80% after 3 h incubation. The internalized fraction of ^18F-AzaFol and the 6S-isomer of the reduced version was 20% and 12%, respectively, after 1 h incubation. These numbers increased slightly when the incubation time was extended to 3 h. […] No change was observed after additional two hours of incubation.

FR-positive KB cells = test: Cell uptake and internalization using FR-positive KB cells; assay type: cell-based
Protocol: as §1

FR-α = target: T3, FR-α (Homo sapiens, UniProt P15328); test: Displacement assay with [^3H]folic acid using KB cells; assay type: binding; conditions: for fold lower affinity to the FR-α compared to the oxidized form: versus 3′-aza-2′-fluorofolic acid
T3 construct: endogenous in cells; host or cells: KB cells
T3 sequence (P15328 25-234): as the sequence (P15328 25-234) above

[3] = KB tumor-bearing mice, 30 min p.i.
[4] = KB tumor-bearing mice, 30 min p.i., ratio
[5] = KB tumor-bearing mice, 60 min p.i.
[6] = KB tumor-bearing mice, 60 min p.i. & Folic Acid (100 μg 10 min prior)
[7] = KB tumor-bearing mice, 60 min p.i., ratio
[8] = KB tumor-bearing mice, 90 min p.i.
[9] = KB tumor-bearing mice, 90 min p.i., ratio
[10] = KB tumor-bearing mice, 90 min p.i., listed as 6S-form
[11] = KB tumor-bearing mice, 90 min p.i., listed as 6S-isomer
[12] = KB cells, displacement of [^3H]folic acid, n = 3

Compound: Nc1nc2ncc(CNc3ccc(C(=O)N[C@@H](CCC(=O)O)C(=O)O)c(F)n3)nc2c(=O)[nH]1 [3′-aza-2′-[^18F]fluorofolic acid, reference compound]
IC50 (FR-α; [12]): 1.4 ± 0.5 nM

Compound: Nc1nc2ncc(CNc3ccc(C(=O)N[C@@H](CCC(=O)O)C(=O)O)c([18F])n3)nc2c(=O)[nH]1 [3′-aza-2′-[^18F]fluorofolic acid, reference compound]
in vivo stability (radiometabolites) ([1]; comparison tracer): radiometabolites in the liver were detected
uptake into RT16 cells (in words) (RT16 (FR-α)): significant uptake
uptake into D4 cells (in words) (D4 (FR-β)): significant uptake
internalized fraction (D4 (FR-β); 1 h incubation): 20%
uptake (D4 (FR-β); 1 h incubation): approximately 70%
uptake (D4 (FR-β); 3 h incubation): ~80%

Compound: CN1c2c(nc(N)[nH]c2=O)NC[C@H]1CNc1ccc(C(=O)N[C@@H](CCC(=O)O)C(=O)O)cc1 [Compound 6R-5-MTHF, 6R-5-MTHF, reference compound]
IC50 (FR-α; [12]): 25.8 ± 5.8 nM

Compound: CN1c2c([nH]c(N)nc2=O)NC[C@@H]1CNc1ccc(C(=O)N[C@@H](CCC(=O)O)C(=O)O)cc1 [Compound 6S-5-MTHF, 6S-5-MTHF, reference compound]
IC50 (FR-α; [12]): 20.6 ± 0.4 nM

The next lines start with results.

Biodistribution: Blood (KB tumor-bearing mice; [3]): 1.52 ± 0.31 % IA/g
Biodistribution: Bone (KB tumor-bearing mice; [3]): 1.70 ± 0.13 % IA/g
Biodistribution: Feaces (KB tumor-bearing mice; [3]): 3.71 ± 2.34 % IA/g
Biodistribution: Gall Bladder (KB tumor-bearing mice; [3]): 20.0 ± 9.00 % IA/g
Biodistribution: Heart (KB tumor-bearing mice; [3]): 2.02 ± 0.22 % IA/g
Biodistribution: Intestines (KB tumor-bearing mice; [3]): 2.61 ± 0.65 % IA/g
Biodistribution: KB Tumor (KB tumor-bearing mice; [3]): 11.13±0.90 % IA/g and 11.1 ± 0.90 % IA/g
Biodistribution: Kidneys (KB tumor-bearing mice; [3]): 42.5 ± 2.73 % IA/g
Biodistribution: Liver (KB tumor-bearing mice; [3]): 8.10 ± 1.16 % IA/g
Biodistribution: Lung (KB tumor-bearing mice; [3]): 2.31 ± 0.42 % IA/g
Biodistribution: Muscle (KB tumor-bearing mice; [3]): 1.36 ± 0.25 % IA/g
Biodistribution: Salivary glands (KB tumor-bearing mice; [3]): 13.8 ± 2.06 % IA/g
Biodistribution: Spleen (KB tumor-bearing mice; [3]): 1.90 ± 0.34 % IA/g
Biodistribution: Stomach (KB tumor-bearing mice; [3]): 2.54 ± 0.56 % IA/g
Tu-to-blood (KB tumor-bearing mice; [4]): 7.41 ± 0.96
Tu-to-liver (KB tumor-bearing mice; [4]): 1.38 ± 0.16
Biodistribution: Kidneys (KB tumor-bearing mice; KB tumor-bearing mice, 30 min p.i., listed as 6S-form): 42.5±2.73 % IA/g
Biodistribution: Liver (KB tumor-bearing mice; KB tumor-bearing mice, 30 min p.i., listed as 6S-tracer): 8.10±1.16 % IA/g
Biodistribution: Blood (KB tumor-bearing mice; [5]): 1.26 ± 0.08 % IA/g
Biodistribution: Bone (KB tumor-bearing mice; [5]): 1.38 ± 0.14 % IA/g
Biodistribution: Feaces (KB tumor-bearing mice; [5]): 4.85 ± 1.95 % IA/g
Biodistribution: Gall Bladder (KB tumor-bearing mice; [5]): 16.6 ± 8.91 % IA/g
Biodistribution: Heart (KB tumor-bearing mice; [5]): 1.53 ± 0.15 % IA/g
Biodistribution: Intestines (KB tumor-bearing mice; [5]): 2.58 ± 0.42 % IA/g
Biodistribution: KB Tumor (KB tumor-bearing mice; [5]): 14.2 ± 1.91 % IA/g
Biodistribution: Kidneys (KB tumor-bearing mice; [5]): 37.5 ± 3.61 % IA/g
Biodistribution: Liver (KB tumor-bearing mice; [5]): 6.28 ± 0.66 % IA/g
Biodistribution: Lung (KB tumor-bearing mice; [5]): 2.04 ± 0.09 % IA/g
Biodistribution: Muscle (KB tumor-bearing mice; [5]): 1.29 ± 0.14 % IA/g
Biodistribution: Salivary glands (KB tumor-bearing mice; [5]): 13.8 ± 1.28 % IA/g
Biodistribution: Spleen (KB tumor-bearing mice; [5]): 1.57 ± 0.16 % IA/g
Biodistribution: Stomach (KB tumor-bearing mice; [5]): 1.84 ± 0.33 % IA/g
Biodistribution: Blood (KB tumor-bearing mice; [6]): 1.09 ± 0.28 % IA/g
Biodistribution: Bone (KB tumor-bearing mice; [6]): 0.49 ± 0.12 % IA/g
Biodistribution: Feaces (KB tumor-bearing mice; [6]): 8.42 ± 2.10 % IA/g
Biodistribution: Gall Bladder (KB tumor-bearing mice; [6]): 5.87 ± 0.45 % IA/g
Biodistribution: Heart (KB tumor-bearing mice; [6]): 0.50 ± 0.13 % IA/g
Biodistribution: Intestines (KB tumor-bearing mice; [6]): 4.34 ± 0.93 % IA/g
Biodistribution: KB Tumor (KB tumor-bearing mice; [6]): 2.11 ± 0.38 % IA/g
Biodistribution: Kidneys (KB tumor-bearing mice; [6]): 2.28 ± 0.95 % IA/g
Biodistribution: Liver (KB tumor-bearing mice; [6]): 4.76 ± 0.87 % IA/g
Biodistribution: Lung (KB tumor-bearing mice; [6]): 0.84 ± 0.20 % IA/g
Biodistribution: Muscle (KB tumor-bearing mice; [6]): 0.26 ± 0.06 % IA/g
Biodistribution: Salivary glands (KB tumor-bearing mice; [6]): 0.89 ± 0.26 % IA/g
Biodistribution: Spleen (KB tumor-bearing mice; [6]): 0.90 ± 0.24 % IA/g
Biodistribution: Stomach (KB tumor-bearing mice; [6]): 0.73 ± 0.32 % IA/g
Tu-to-blood (KB tumor-bearing mice; [7]): 11.3 ± 1.13
Tu-to-kidney (KB tumor-bearing mice; [7]): 0.38 ± 0.04
Tu-to-liver (KB tumor-bearing mice; [7]): 1.87 ± 0.96
Biodistribution: Blood (KB tumor-bearing mice; [8]): 1.16 ± 0.20 % IA/g
Biodistribution: Bone (KB tumor-bearing mice; [8]): 1.49 ± 0.30 % IA/g
Biodistribution: Feaces (KB tumor-bearing mice; [8]): 4.57 ± 1.98 % IA/g
Biodistribution: Gall Bladder (KB tumor-bearing mice; [8]): 11.4 ± 7.18 % IA/g
Biodistribution: Heart (KB tumor-bearing mice; [8]): 1.48 ± 0.17 % IA/g
Biodistribution: Intestines (KB tumor-bearing mice; [8]): 2.34 ± 0.39 % IA/g
Biodistribution: KB Tumor (KB tumor-bearing mice; [8]): 19.2 ± 4.16 % IA/g
Biodistribution: Kidneys (KB tumor-bearing mice; [8]): 42.3 ± 7.05 % IA/g
Biodistribution: Liver (KB tumor-bearing mice; [8]): 5.86 ± 1.11 % IA/g
Biodistribution: Lung (KB tumor-bearing mice; [8]): 2.08 ± 0.35 % IA/g
Biodistribution: Muscle (KB tumor-bearing mice; [8]): 1.24 ± 0.14 % IA/g
Biodistribution: Salivary glands (KB tumor-bearing mice; [8]): 21.4 ± 4.59 % IA/g
Biodistribution: Spleen (KB tumor-bearing mice; [8]): 1.82 ± 0.49 % IA/g
Biodistribution: Stomach (KB tumor-bearing mice; [8]): 1.69 ± 0.33 % IA/g
Tu-to-blood (KB tumor-bearing mice; [9]): 16.5 ± 0.59
Tu-to-liver (KB tumor-bearing mice; [9]): 3.30 ± 0.59
Biodistribution: Kidneys (KB tumor-bearing mice; [10]): 42.3±7.05 % IA/g
Biodistribution: Liver (KB tumor-bearing mice; [10]): 5.86±1.11 % IA/g
Biodistribution: Salivary glands (KB tumor-bearing mice; [10]): 21.4±4.59 % IA/g
Biodistribution: KB Tumor (KB tumor-bearing mice; [11]): 19.2±4.16 % IA/g
Biodistribution: Spleen (KB tumor-bearing mice; [11]): 1.82±0.49 % IA/g
Biodistribution: Liver (KB tumor-bearing mice; KB tumor-bearing mice, 90 min p.i., listed as S-isomer): 5.86±1.11 % IA/g
Specificity of tumor binding (KB tumor-bearing mice; blocking by pre-injection of folic acid): 89%
factor of increase of tumor-to-kidney ratio (KB tumor-bearing mice; from 30 min p.i. to 90 min p.i.): 1.7
in vivo stability ([1]; samples taken p.i.): Only intact parent compounds were found
logD7.4 [2]: −4.6 ± 0.1
uptake into RT16 cells (in words) (RT16 (FR-α)): significant uptake
uptake into D4 cells (in words) (D4 (FR-β)): significant uptake
internalized fraction (D4 (FR-β); 1 h incubation): 12%
uptake (D4 (FR-β); 1 h incubation): approximately 70%
uptake (D4 (FR-β); 3 h incubation): ~80%
Compound: 6S-3′-aza-2′-[^18F]fluoro-5-MTHF [6S-[^18F]1]
PET/CT: KB tumor xenograft uptake (KB tumor xenografts; already 1 h p.i.): High KB tumor xenograft uptake
PET/CT: blocking studies, uptake in all FR-positive tissues (KB tumor xenografts; folic acid injected 10 minutes prior to radiotracer): remarkably reduced uptake
internalized activity (FR-positive KB cells; 37° C.): ~16%
cell uptake (% of total added radioactivity) (FR-positive KB cells; 3 h incubation at 37° C., calculated per 0.3 mg of protein): about 60%

IC50 (FR-α): 27.1 ± 3.7 nM
fold lower affinity to the FR-α compared to the oxidized form (FR-α): about 17 fold
Compound: CN1c2c(nc(N)[nH]c2=O)NCC1CNc1ccc(C(=O)NC(CCC(=O)O)C(=O)O)c(F)n1 (stereo not drawn) [Compound 6R-1, 6R-3′-Aza-2′-Fluoro-5-Methyltetrahydrofolate]

IC50 (FR-α): 23.8 ± 4 nM
fold lower affinity to the FR-α compared to the oxidized form (FR-α): about 17 fold
Compound: CN1c2c(nc(N)[nH]c2=O)NC[C@H]1CNc1ccc(C(=O)N[C@@H](CCC(=O)O)C(=O)O)c(F)n1 [Compound 6S-1, 6S-3′-Aza-2′-Fluoro-5-Methyltetrahydrofolate]
